Measurements taken from patent publication US20140128461A1, “USE OF A FOOD COMPOSITION IN THE TREATMENT AND/OR PREVENTION OF NEUROPATHIC PAIN INDUCED BY AN ANTICANCER AGENT” (priority 2010, published 2014).

Key:
[1] = test system: chronic neuropathy induced by oxaliplatin in rat; experiment: Thermal Place Preference Test 20° C. vs. 30° C., chronic neuropathy model, preventive diet
Experimental: The rats were distributed among plastic cages with 4 rats per cage. The cages were placed in an air-conditioned room at 22° C.±2° C., with controlled hygrometry (50%), a day/night 12-hour lighting cycle, and free access to food and water.
Two types of compositions were used: • a composition containing a quantity of polyamines equivalent to that present in a daily food diet (Putrescine: 54 mg/kg, Cadaverine: 37 mg/kg, Spermidine: 27 mg/kg, Spermine: 7 mg/kg), • a composition with low polyamine content comprising less than 1600 picomoles/g polyamines (Putrescine<0.01 mg/kg, Cadaverine<0.01 mg/kg, Spermidine<0.01 mg/kg, Spermine<0.01 mg/kg).
The different types of diets (diet based on a composition comprising a normal content of polyamines or PCD (Polyamine Containing Diet) and a diet based on a composition with low polyamines content called PDD (Polyamine Deficient Diet)) were given as soon as the rats arrived in the animal housing facility i.e. one week before the start of experiments.
The Thermal Place Preference Test (Bioseb®, Chaville, France) is formed of two adjacent metal plates surrounded by a chamber in opaque Plexiglas. The rat is placed in the chamber and is free to move from one plate to the other. The first plate called the <<reference plate>> is held at ambient temperature (25-30° C.) and the second plate called the <<test plate>> is held at a cold temperature. Using an infrared camera connected to a computer, the time that the animal spends on each plate is measured, together with the number of movements between the two plates. Each session lasts 3 minutes. Habituation of the animals consists of placing the rats on the apparatus for 3 minutes several times a day maintaining the two plates at a temperature of 25° C. […] Three pairs of temperatures were chosen for the experiments in relation to the model examined:

[2] = test system: chronic neuropathy induced by oxaliplatin in rat; experiment: Thermal Place Preference Test 20° C. vs. 30° C., chronic neuropathy model, curative diet (PDD from D15); conditions: rats on PCD diet
Experimental: The Thermal Place Preference Test (Bioseb®, Chaville, France) is formed of two adjacent metal plates surrounded by a chamber in opaque Plexiglas. The rat is placed in the chamber and is free to move from one plate to the other. The first plate called the <<reference plate>> is held at ambient temperature (25-30° C.) and the second plate called the <<test plate>> is held at a cold temperature. Using an infrared camera connected to a computer, the time that the animal spends on each plate is measured, together with the number of movements between the two plates. Each session lasts 3 minutes. Habituation of the animals consists of placing the rats on the apparatus for 3 minutes several times a day maintaining the two plates at a temperature of 25° C.

[3] = test system: NR2B subunit of the NMDA receptors; experiment: Western blot of NR2B expression and phosphorylation in the dorsal horn of the spinal cord; assay type: in vivo, rat; conditions: D3 after oxaliplatin 6 mg/kg ip, polyamine-containing diet, vs control animals
Experimental: The dorsal corn of the spinal cord (L4-L6) was isolated on an ice block and immediately frozen in liquid nitrogen. The samples were then stored at −80° C. until analysis.
The tissue samples were subjected to cell lysis at 4° C. performed with 300 μL of stop buffer (50 mM Hepes, 150 mM NaCl, 10 mM EDTA, 10 mM Na2P2O7, 10 mM vanadate, 2 mM Na3VO4, 100 mM NaF, 1% Triton, 0.5 mM PMSF, 100 UI/mL Iniprol and 20 μM Leupeptine, pH 7.5). After sonication (1 to 2 minutes at 4° C.), the sample was centrifuged at 14000 rpm at 4° C. and the supernatant collected. This centrifuging step was repeated once. The supernatant contained the cytoplasmic and membrane proteins assayed by colorimetry (BC Assay UP40840A®, Interchim). […] The proteins were then transferred onto a nitrocellulose membrane (Millipore) for 2 hours in a transfer buffer (25 mM Tris, 190 mM glycine, 20% methanol, pH 8.3). The membranes were hybridised with the corresponding antibodies overnight at 4° C. […] The Western-Blots were scanned with an image analyser ChemiDoc™ XRS System, Bio-rad®) and the density of each band was quantified using computer software (Image Lab™ software, Bio-rad®)). […] The results are expressed as a percentage of the control group (non-treated group receiving a diet containing polyamines, PCD CT).

## O=C1[O][Pt]2([NH][C@@H]3CCCC[C@H]3[NH]2)[O]C1=O [oxaliplatin]
[1]; D10, p<0.001
  change in time spent on the test plate (20° C.) vs control rats on PCD diet: −42%
[1]; D15, p<0.001
  change in time spent on the test plate (20° C.) vs control rats on PCD diet: −32%
[1]; D22, p<0.001
  change in time spent on the test plate (20° C.) vs control rats on PCD diet: −24%
[1]; D29, p<0.05
  change in time spent on the test plate (20° C.) vs control rats on PCD diet: −20%
[2]; D4 (maximal), p<0.01
  change in time spent on the test plate (20° C.) vs control rats: −46%
[2]; D39, p<0.01
  change in time spent on the test plate (20° C.) vs control rats: −15%
[3]
  expression of the NR2B subunit: No variation
  phosphorylation of the NR2B subunit on tyrosine sites 1472 and 1336 and serine site 1303: No variation
